Experimental data reported in patent US20250059187A1, “COVALENTLY BINDING INHIBITORS OF G12S, G12D AND/OR G12E MUTANTS OF K-RAS GTPASE” (The Regents of the University of California, priority 2021, published 2025).

Key:
K-Ras G12D [1] = biological target: T1, K-Ras G12D (Homo sapiens, UniProt P01116, G12D); assay: Covalent modification of recombinant K-Ras(G12D) by whole-protein mass spectrometry; type: binding
T1 construct: human K-Ras (G12D, aa 1-169); 6xHis tag + TEV cleavage site (N, cleaved yes); made in house; host or cells: E. coli BL21(DE3)
Experimental: (§1) Test compounds were prepared as 100× stock solutions in DMSO. K-Ras proteins were diluted with SEC Buffer (20 mM HEPES 7.5, 150 mM NaCl, 1 mM MgCl2) to 400 nM or 1 μM. In a typical reaction, 0.5 μL 100× compound stock was mixed with 50 μL diluted K-Ras protein, and the resulting mixture was incubated for the desired amount of time. The extent of modification was assessed by electrospray mass spectrometry using a Waters Xevo G2-XS system equipped with an Acquity UPLC BEH C4 1.7 μm column. The mobile phase was a linear gradient of 5-95% acetonitrile/water+0.05% formic acid. For kinetic measurements, a 2× compound solution was first prepared in SEC Buffer, which was then mixed with 400 nM K-Ras(G12D) protein at 1:1 (v/v) ratio. Injection time stamps were used to calculate elapsed time.

K-Ras(G13D) = biological target: T2, K-Ras(G13D) (Homo sapiens, UniProt P01116, G13D); assay: Covalent modification of recombinant K-Ras(G13D) by whole-protein mass spectrometry; type: binding; conditions: GDP and GppNHp state
T2 construct: human K-Ras (G13D, aa 1-169); 6xHis tag + TEV cleavage site (N, cleaved yes); made in house; host or cells: E. coli BL21(DE3)
Experimental: as §1

K-Ras G12E [2] = biological target: T3, K-Ras G12E (Homo sapiens, UniProt P01116, G12E); assay: Covalent modification of recombinant K-Ras(G12E) by whole-protein mass spectrometry; type: binding; conditions: GDP and GppNHp state
T3 construct: human K-Ras (G12E, aa 1-169); 6xHis tag + TEV cleavage site (N, cleaved yes); made in house; host or cells: E. coli BL21(DE3)
Experimental: as §1

BaF3/K-Ras(G12D) cells = assay: Growth inhibition of BaF3/K-Ras(G12D) cells; type: cell-based, murine; conditions: Mus musculus, read-out: IC50, growth of BaF3/K-Ras(G12D) cells
Experimental: (§2) Cells were seeded into 96-well white flat bottom plates (1,000 cells/well) (Corning) and incubated overnight. Cells were treated with the indicated compounds in a nine-point threefold dilution series (100 μL final volume) and incubated for 72 h. Cell viability was assessed using a commercial CellTiter-Glo (CTG) luminescence-based assay (Promega). Briefly, the 96-well plates were equilibrated to room temperature before the addition of diluted CTG reagent […] (1:4 CTG reagent:PBS). Plates were placed on an orbital shaker for 30 min before recording luminescence using a Spark 20M (Tecan) plate reader.

[3] = system: Ba/F3 KRAS G12D cells + interleukin-3; assay: Growth inhibition of Ba/F3 KRAS G12D cells co-treated with IL-3; type: cell-based, murine; conditions: IL-3, 10 ng/mL
Experimental: as §2

[4] = system: SW1990 (homozygous KRAS^G12D/G12D); assay: In-cell covalent labeling and signaling by Western blot, SW1990; type: cell-based
Experimental: (§3) Cells were passed for at least two generations after cryorecovery before they were used for assays. All cell lines were tested mycoplasma negative using MycoAlert™ Mycoplasma Detection Kit (Lonza). When indicated, cells were treated with drugs at 40-60% confluency at a final DMSO concentration of 1%. At the end of treatment period, cells were placed on ice. Unless otherwise indicated, adherent cells were washed once with ice-cold PBS (1 mL), scraped with a spatula, and pelleted by centrifugation (500×g, 5 min). Suspension cells were pelleted by centrifugation (500×g, 5 min), washed with 1 mL ice-cold PBS, and pelleted again. Cells were lysed in RIPA buffer supplemented with protease and phosphatase inhibitors (cOmplete and phosSTOP, Roche) on ice for 10 min. For RBD pulldown experiments, cells were lysed in Co-IP Lysis Buffer in lieu of RIPA buffer. Lysates were clarified by high-speed centrifugation (19,000×g, 10 min). Concentrations of lysates were determined with protein BCA assay (Thermo Fisher) and adjusted to 2 mg/mL with additional RIPA buffer (or Co-IP Lysis Buffer). […]
(§4) Unless otherwise noted, SDS-PAGE was run with Novex 12% Bis-Tris gel (Invitrogen) in MES running buffer (Invitrogen) at 200 V for 60 min following the manufacturer's instructions. […] The membrane was washed three times with TBST (5 min each wash) and imaged on a Li-COR Odyssey fluorescence imager.

[5] = system: AsPC-1 (homozygous KRAS^G12D/G12D); assay: In-cell covalent labeling by Western blot, AsPC-1; type: cell-based
Experimental: as §3, §4

[6] = system: AGS cell line (heterozygous KRAS^G12D/WT); assay: In-cell covalent labeling by Western blot, AGS; type: cell-based
Experimental: as §3, §4

[7] = system: non-G12D mutation cell lines; assay: In-cell covalent labeling by Western blot, non-G12D cell lines; type: cell-based
Experimental: as §3, §4

[8] = system: non-G12D mutation cancer cell lines (H1299, HCT116, A549, A375); assay: Growth inhibition of non-G12D mutation cancer cell lines; type: cell-based
Experimental: as §2

[9] = system: KRAS G12D mutation cancer cell lines; assay: Growth inhibition of KRAS G12D cancer cell lines; type: cell-based
Experimental: as §2

wild type K-Ras = biological target: T4, wild type K-Ras (Homo sapiens, UniProt P01116); assay: Covalent modification of test protein after incubation with compound; type: binding; conditions: 24-h incubation with 100 μM compound at 23° C. at pH 7.5
T4 construct: human K-Ras (wildtype, aa 1-169); 6xHis tag + TEV cleavage site (N, cleaved yes); made in house; host or cells: E. coli BL21(DE3)

K-Ras G12D [10] = biological target: T1, K-Ras G12D; assay: as above; type: binding; conditions: 24-h incubation with 100 μM compound at 23° C. at pH 7.5
K-Ras G12E [11] = biological target: T3, K-Ras G12E; assay: as above; type: binding; conditions: 24-h incubation with 100 μM compound at 23° C. at pH 7.5
K-Ras(G12D)·GDP = biological target: T5, K-Ras(G12D)·GDP (Homo sapiens, UniProt P01116, G12D); assay: Detection of covalent modification of K-Ras(G12D) by tandem mass spectrometry; type: binding; conditions: 1 mM or 10 mM, 23° C., 1 h
T5 construct: human K-Ras (G12D, aa 1-169); 6xHis tag + TEV cleavage site (N, cleaved yes); made in house; host or cells: E. coli BL21(DE3)
Experimental: K-Ras(G12D) protein (1 μM, 100 μL) in PBS 7.4 was treated with β-propiolactone (1 mM or 10 mM) at 23° C. for 1 h. The reaction buffer was exchanged into Digestion Buffer (20 mM Tris 8.0, 2 mM CaCl2)) using a Zeba 0.5-mL desalting column (7K MWCO, Thermo Scientific). 80 μL of the resulting protein solution was mixed with 2 μL 200 mM DTT. The mixture was heated at 56° C. for 30 min. After cooling to 23° C., 4 μL 200 mM iodoacetamide was added. After 15 min at 23° C., 2.1 μL 200 mM DTT was added. After an additional 5 min, 500 ng trypsin was added to the mixture, and the samples were incubated at 37° C. overnight. 5 μL 10% formic acid was added to stop the digestion (final formic acid concentration: 0.5% v/v). The tryptic peptides were enriched and desalted using OMIX C18 tips (Agilent) following the manufacturer's instructions. Peptides (0.5% of total) were resolved on an Easy-Spray nano-HPLC column (Thermo Fisher ES800A, 150 mm length, […], […]) over a 54-min gradient of 2-37% acetonitrile-water+0.1% formic acid and analyzed by a Q-Exactive hybrid quadrupole-orbitrap mass spectrometer (MS1 resolution 70,000, AGC target: 3e6, range: 350-1500 m/z; MS2 resolution 17,500, AGC target: 5e4, max injection time: 120 ms, Top 10, NCE: 25%, dynamic exclusion: 15 s). […]

Row | SMILES | time to complete labeling of K-Ras(G12D)·GDP (K-Ras G12D [1]) | time to complete labeling of K-Ras(G12D)·GppNHp (K-Ras G12D [1]) | kinact/KI (K-Ras G12D [1]; read-out: kinact/KI against K-Ras(G12D)·GDP) | labeling of K-Ras G13D (K-Ras(G13D)) | labeling of K-Ras G12E (K-Ras G12E [2]) | IC50 (BaF3/K-Ras(G12D) cells) | sensitivity of cells co-treated with interleukin-3 [3] | in-cell labeling of endogenous K-Ras(G12D) [4] | in-cell labeling of endogenous K-Ras(G12D) [5] | in-cell labeling of endogenous K-Ras [6] | in-cell labeling of K-Ras [7] | toxicity to non-G12D mutation cancer cell lines [8] | growth of KRAS G12D cancer cell lines [9] | % covalent modification of wild type K-Ras (wild type K-Ras) | % covalent modification of K-Ras G12D (K-Ras G12D [10]) | % covalent modification of K-Ras G12E (K-Ras G12E [11]) | alkylation of Asp12 in peptide LVVVGAD*GVGK (K-Ras(G12D)·GDP)
1 | C#Cc1c(F)ccc2cc(O)cc(-c3ncc4c(N5C[C@H]6CC[C@@H](C5)N6C(=O)[C@@H]5OC(=O)C5(C)C)nc(OC[C@@]56CCCN5C[C@H](F)C6)nc4c3F)c12 [(R)-7] | ≤ 30 min | ≤ 300 min | 11000 M⁻¹ s⁻¹ | not that of WT, G12E, G12S, or G13D | not that of WT, G12E, G12S, or G13D | 73 ± 17 nM | lost sensitivity to (R)-7 up to 10 μM | labeled endogenous K-Ras(G12D) completely | labeled endogenous K-Ras(G12D) completely | only half of the two alleles | none in non-G12D mutation cell lines | minimal toxicity to the latter cell lines up to 10 μM concentration | selectively inhibited growth of cancer cells lines harboring K-Ras(G12D) mutation | 0% | 100% | 0% | 
2 | O=C1CCO1 [β-propiolactone] |  |  |  |  |  |  |  |  |  |  |  |  |  |  |  |  | the mutant aspartate was covalently alkylated by a 2-carboxylethyl group
